Experimental findings from PubChem BioAssay (NCI) are described below.

Holding throughout (experiment): NCI anticancer screen, dose series, 48 h
For assay [1], the system named is COLO 205 colon.
The test system of assay [2] is OVCAR-3 ovarian.
The test system of assay [3] is HL-60(TB) leukemia.
The subject of assay [4] is MDA-MB-435.
For assay [5], the system named is NCI-H460 lung.
The subject of assay [6] is EKVX NSCLC.
Assay [7] deals with SNB-19 CNS.
Assay [8] concerns MALME-3M melanoma.
In assay [9] the test system is SK-OV-3 ovarian.
Assay [10] deals with HT29 colon.

Several values for one entry are separate records, joined by “and”; a condition that tells them apart may be missing. Equal entries are not always repeated.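 Test compounds were applied to cells in 96-well plates for 48 hours at 5 doses. GI50 is the concentration that inhibits growth by half. The concentration for full growth arrest is given as TGI.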 Some results are limits rather than exact numbers.

As to `Cc1nn(-c2ccc(F)cc2)c2ncnc(Nc3ccc(NC(=O)Nc4ccc(Cl)c(C(F)(F)F)c4)cc3)c12`, the GI50 was 1.87 µM in assay [1]; 2.06 µM in assay [2]; 2.73 µM in assay [3]; 3.26 µM in assay [4]; 2.35 µM in [5]; 2.78 µM in assay [6]. The GI50 in assay [7] is 2.93 µM; in assay [8], 1.76 µM; in [9], 3.8 µM; in assay [10] it was 2.76 µM. Moreover, the TGI in assay [1] came to 3.95 µM; in assay [2] it was 5.79 µM; in assay [3], 8.1 µM; in [4], 12.6 µM; in [5] it was 6.01 µM; in assay [6], 10.8 µM. For the same compound, the TGI worked out at 10.2 µM in assay [7], 4.21 µM in assay [8], 14.5 µM in assay [9] and 9.82 µM in [10].
For the compound `COc1ccc(NC(=O)Nc2n[nH]c3ccccc23)cc1`, the GI50 in [1], in assay [2], in assay [3], in assay [4], in assay [5] and in assay [6] was more than 100 µM throughout. Also, the GI50 in assay [7], in [8], in assay [9] and in assay [10] was more than 100 µM in each case. Moreover, the TGI in [1], in assay [2], in [3], in [4], in [5] and in [6] was more than 100 µM each time. Also, the TGI in [7], in [8], in assay [9] and in assay [10] was more than 100 µM throughout.
For `O=C(c1cccs1)c1c(C(F)(F)F)n([O-])c2ccccc2[n+]1=O`, the GI50 in [1] is 1.66 µM; in assay [2], 0.744 µM; in assay [3], 0.25 µM; in [4] it was 1.15 µM; in assay [5] it was 0.234 µM; in assay [6], 0.798 µM. The GI50 in assay [7] was 5.67 µM; in assay [8], 0.85 µM; in assay [9], 2.11 µM; in assay [10] it was 1.08 µM. Also, the TGI came to 9.89 µM in assay [1]; 1.67 µM in assay [2]; 0.966 µM in [3]; 3.5 µM in assay [4]; 0.597 µM in assay [5]; 1.55 µM in assay [6]. Further, the TGI in assay [7] came out at 13.2 µM; in assay [8], 2.53 µM; in assay [9] it was 7.56 µM; in [10], 4.13 µM.
For the compound `COc1ccc(/C=C/C=C(/C#N)C(N)=S)cc1`, the GI50 is 20.9 µM in [1]; 15.5 µM in assay [2]; 26 µM in [3]; 21.6 µM in [4]; 23.7 µM in assay [5]; 77.3 µM in assay [6]. Also, the GI50 in assay [7] is 26.2 µM; in assay [8], 26.9 µM; in assay [9], 96.1 µM; in assay [10], 26 µM. Moreover, the TGI in assay [1] is 50.7 µM; in assay [2] it was 42.7 µM; in assay [3], more than 100 µM; in [4], 77.1 µM; in assay [5] it was 65.9 µM; in [6] it was more than 100 µM. Besides, the TGI in assay [7] was more than 100 µM; in assay [8] it was 99.4 µM; in [9], more than 100 µM; in assay [10], more than 100 µM.
As for `Clc1ccccc1C(c1ccccc1)(c1ccccc1)n1ccnc1`, the GI50 was 1.76 µM in assay [1]; 1.78 µM in assay [2]; 1.72 µM in assay [3]; 2.4 µM in [4]; 2.9 µM in [5]; 2.41 µM in assay [6]. Besides, the GI50 in [7] is 3.14 µM; in [8] it was 1.74 µM; in assay [9] it was 3.71 µM; in assay [10], 2.24 µM. The TGI was 3.28 µM and 29 µM in assay [1]; 4.41 µM and 17.6 µM in assay [2]; 5.21 µM in assay [3]; 10.1 µM and 47.4 µM in assay [4]; 9.53 µM and 29.8 µM in [5]; 13.7 µM and 23.7 µM in assay [6]. The TGI was 17.7 µM and 32.3 µM in assay [7]; 7.24 µM and 16.9 µM in assay [8]; 13.7 µM and 29.2 µM in [9]; 7.1 µM and 28 µM in [10].
`C=C1CCC2C(/C=C(\C)CCC1O)OC(=O)C2C` (stereo not given): the GI50 is more than 100 µM in assay [1]; more than 100 µM in assay [2]; 51.5 µM in assay [3]; more than 100 µM in [4]; more than 100 µM in assay [5]; more than 100 µM in assay [6]. Moreover, the GI50 in [7], in [8], in assay [9] and in assay [10] was more than 100 µM in each case. Moreover, the TGI in assay [1], in assay [2], in assay [3], in [4], in [5] and in [6] was more than 100 µM throughout. For the same compound, the TGI in assay [7], in assay [8], in assay [9] and in assay [10] was more than 100 µM throughout.
Consider `C=C1C(=O)O[C@H]2[C@H]1CC/C(CNC(=O)c1c[nH]c3ccc(F)cc13)=C\CC[C@@]1(C)O[C@@H]21`, for which the GI50 was 0.583 µM in [1]; 0.486 µM in assay [2]; 2.18 µM in assay [3]; 1.77 µM in assay [4]; 3.43 µM in assay [5]; 1.68 µM in [6]. The GI50 in [7] is 11.9 µM; in assay [8] it was 1.41 µM; in assay [9], 10.8 µM; in assay [10] it was 1.19 µM. The TGI in [1] came to 2.14 µM; in assay [2], 1.77 µM; in [3] it was 5.95 µM; in [4], 7.41 µM; in assay [5] it was 14.8 µM; in [6] it was 5.6 µM. The TGI in assay [7] was 26.1 µM; in assay [8], 3.3 µM; in [9], 22.7 µM; in [10], 2.91 µM.
